Experiment in all cases: NCI anticancer screen, dose series, 48 h
Test [1] concerns 786-0 renal.
In test [2] the test system is HT29 colon.
Test [3] concerns IGROV1 ovarian.
Test [4] deals with NCI-H226 lung.
Test [5] concerns NCI-H23 lung.
In test [6] the test system is RPMI-8226 leukemia.
Test [7] deals with SF-268 CNS.
In test [8] the test system is CAKI-1 renal.
Test [9] has as its system MDA-MB-231 breast.
Test [10] has as its system NCI/ADR-RES ovarian.
Test [11] concerns SF-539 CNS.

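Growth conditions: 96-well plates. Treatment: test compound, 48 hours, 5 concentrations. Analysis: linear interpolation between bracketing concentrations; unreached endpoints set to highest concentration. TGI: concentration producing complete growth inhibition.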 A value given as a limit tells only on which side of the number the result lay.

Turning to `O=C1CCCCCCCCCCC1CN1CCCCC1` (stereo not drawn), the TGI is over 100 µM in test [1]; over 100 µM in [2]; over 100 µM in [3]; 82.4 µM in test [4]; over 100 µM in test [5]; over 100 µM in test [6]. The molecule further gave a TGI in test [7] of over 100 µM.

With `CCOC(=O)CNc1nc(=O)c2c(=O)oc(Cl)cc2o1`, the TGI in test [1] was 21.9 µM; in test [8] it was 29.1 µM; in [2], 22.6 µM; in test [3], 21.7 µM; in [9] it was 59.1 µM; in test [4], over 100 µM. The TGI was 38.5 µM in [5], 50.3 µM in test [10], 27.9 µM in [7] and 22 µM in test [11].

Regarding `CC1=Nc2sc3c(c2C2=NCCN12)CCCC3`, the TGI in test [1] came out at 46 µM; in test [8], 50.6 µM; in [2], 36.5 µM; in test [3], 60.7 µM; in test [9] it was 71.2 µM; in test [4], 31.2 µM. Further, the TGI in test [5] was 46.3 µM; in test [10] it was 54.4 µM; in test [6] it was 46.9 µM; in test [7], over 100 µM.

As to `CC(C)(C)C(=O)OC12/C(=N/O)CCCCCC1c1ccccc12` (stereo not drawn), the TGI in test [1] was 31 µM; in test [8], 24.6 µM; in test [2] it was 26 µM; in test [3], 29.6 µM; in [4], 35.4 µM; in test [5], 31.3 µM. The TGI in test [6] came out at 30.9 µM; in test [7] it was 32.4 µM; in [11], 39 µM.

In the case of `O=C(Cc1ccccc1)Nn1c(-c2ccccc2)nc2ccccc2c1=O`, the TGI in test [1], in test [2], in [3], in test [9], in [4] and in test [5] was over 100 µM in each case. The TGI in test [6], in [7] and in test [11] was over 100 µM each time.

For the molecule `O=C(NCc1cccc2ccccc12)N/N=C\c1ccc(Cl)cc1`, the TGI in test [1], in test [8], in test [2], in [3], in test [4] and in [5] was over 100 µM throughout. Besides, the TGI in test [10], in test [6], in test [7] and in [11] was over 100 µM each time.

As for `COc1ccc(CN=C(N)N)c2ccccc12`, the TGI in [1], in test [8], in test [2], in test [4], in test [5] and in [10] was over 100 µM throughout. The figures for the TGI in test [6], in test [7] and in test [11] were over 100 µM, 38.8 µM and 52.8 µM, respectively.

`O=C(O)Cc1ccc2[nH]c(O)c(C3=Nc4ccccc4C3=O)c2c1`: the TGI was over 100 µM in [1]; over 100 µM in test [8]; over 100 µM in test [2]; 48.2 µM in [3]; over 100 µM in test [9]; over 100 µM in [4]. The TGI in test [5], in test [10], in test [6] and in test [7] was over 100 µM throughout.

Regarding `O=C1c2cc(Cl)ccc2NC(=NCCCl)C2CSCN12` (stereo not drawn), the TGI in [1], in test [8], in [2], in test [3], in [9] and in test [4] was over 100 µM each time. Besides, the TGI in test [10], in [6] and in [7] was over 100 µM in each case.

Turning to `COc1cc2cc(C(=O)N3CC(CCl)c4c3cc(N)c3ccccc43)[nH]c2c(OC)c1OC` (stereo not drawn), the TGI in test [1] was 0.0102 µM; in test [8], under 0.01 µM; in test [2], 1.41 µM; in [3] it was 0.0401 µM; in test [9] it was 0.519 µM; in test [4], 1.13 µM. Besides, the TGI is under 0.01 µM in test [5], under 0.01 µM in [10], under 0.0107 µM in [6] and under 0.01 µM in test [7].

For the molecule `Cc1c(C(=O)/C=C/c2ccccc2O)c(=O)n(-c2ccccc2)n1C`, the TGI in [1] is 70 µM; in [8], 73.8 µM; in [2] it was over 100 µM; in test [3] it was over 100 µM; in [4] it was 64.6 µM; in [7], over 100 µM. The same molecule yielded a TGI in [11] of 55.5 µM.

In the case of `O=S(=O)(/N=C(\NO)Nc1ccc(Cl)cc1)c1cccc2nsnc12`, the TGI in test [1] is 80.7 µM; in test [8], 70 µM; in test [2], over 100 µM; in test [3], over 100 µM; in test [9], over 100 µM; in [4], over 100 µM. Further, the TGI in test [5], in test [10], in test [7] and in [11] was over 100 µM in each case.

In the case of `COc1ccc(N2C=Nn3c(nc4sc5c(c4c3=O)CCCC5)C2)cc1`, the TGI in test [1] is 20.7 µM; in [8] it was over 100 µM; in test [2], over 100 µM; in [3], over 100 µM; in test [9], 40 µM; in [4] it was over 100 µM. Besides, the TGI in test [5], in test [10], in [6] and in test [7] was over 100 µM in each case.

For the molecule `Cc1c(C(=O)/C=C/c2ccc(N(C)C)cc2)c(=O)n(-c2ccccc2)n1C`, the TGI in test [1], in [8], in test [2], in test [3], in test [4] and in test [5] was over 100 µM each time. Besides, the TGI in test [7] and in test [11] was over 100 µM each time.

`Cc1csc(/N=C\c2c(O)c3ccccc3oc2=O)n1`: the TGI in [1] is over 100 µM; in [8], 34.1 µM; in [2], over 100 µM; in test [3], over 100 µM; in test [9], 34.7 µM; in test [4], over 100 µM. For the same molecule, the TGI was 33 µM in [5], over 100 µM in [10], over 100 µM in test [7] and over 100 µM in test [11].

As to `Nc1ccc(C(=O)c2cn(CCN3CCOCC3)c3ccccc23)c2ccccc12`, the TGI in test [1] is over 100 µM; in [8], over 100 µM; in test [2], 55.9 µM; in test [3], 52.3 µM; in [5], 68 µM; in test [10], 65.3 µM. For the same molecule, the TGI in test [6], in test [7] and in test [11] was over 100 µM throughout.

For the molecule `CC(=O)OC[C@@H](OC(C)=O)[C@H](OC(C)=O)[C@@H]1OC(C)(C)O[C@@H]1C1SCCCS1`, the TGI in test [1], in test [8], in test [9], in test [5], in test [6] and in test [7] was over 100 µM throughout. This molecule came in with a TGI in test [11] of over 100 µM.

Turning to `O=[N+]([O-])c1ccc(C=NCC2CCCN3CCCCC23)cc1` (stereo not drawn), the TGI in test [1] was 52.1 µM; in test [8], over 100 µM; in [2], 34.9 µM; in test [3], over 100 µM; in [9], over 100 µM; in [5] it was over 100 µM. Further, the results for the TGI in test [10], in test [6] and in test [7] were over 100 µM, 48.1 µM and over 100 µM, respectively.

For `C/C=C/C1OC(O)(C(C)C(O)[C@H](C)C2OC(=O)/C(OC)=C/C(C)=C/[C@@H](C)[C@@H](O)[C@@H](C)C(O)C(C)C/C(C)=C/C=C/C2OC)C[C@@H](OC2CC(O)C(OC(N)=O)C(C)O2)C1C` (stereo partly drawn), the TGI in [1] worked out at 1.42 µM; in [8] it was 13.9 µM; in [2], 1.54 µM; in test [3], 12.9 µM; in [4], 6.97 µM; in [5] it was 15.3 µM. The TGI is over 68.6 µM in test [10], 10.3 µM in test [7] and under 0.01 µM in test [11].

With `COc1ccc(C2SCC(=O)N2NC(=O)c2ccc(NC(C)=O)cc2)cc1` (stereo not drawn), the TGI in test [1], in [2], in [3], in test [9], in [4] and in [5] was over 100 µM throughout. Further, the TGI in test [10], in [6], in test [7] and in test [11] was over 100 µM in each case.

With `CC[C@H]1C=CCC[C@@]2(C[C@@H]3CC[C@H]4[C@@H](C(=O)OCCCCCCCCCCCCCCCC(=O)N(CCCN)C[C@@H](O)CCN)[C@@]5(CCC[C@@H](C)O5)NC(=[N+]34)N2)O1`, the TGI was 3.3 µM in [1]; over 10 µM in test [8]; 2.96 µM in test [2]; 3.13 µM in test [3]; 3.32 µM in [4]; 3.51 µM in test [5]. Moreover, the TGI in test [10] was over 10 µM; in test [6], 2.53 µM; in [7], 3.45 µM; in test [11] it was 2.78 µM.

On to `COC(C)(C)C1(O)CCC(C)CC1=O` (stereo not drawn), for which the TGI in [1], in [8], in [2], in [3], in test [5] and in [6] was over 100 µM throughout. Besides, the TGI in test [7] and in [11] was over 100 µM throughout.

Consider `CN(/N=C/c1ccnc2ccccc12)c1ccc(Cl)cc1[N+](=O)[O-]`, for which the TGI in test [1], in [8], in test [2], in [3], in [9] and in test [4] was over 100 µM throughout. Moreover, the TGI in [5], in test [10], in [7] and in [11] was over 100 µM each time.

With `O=C(CNc1ccccc1[N+](=O)[O-])Nn1c(-c2ccccc2)nc2ccccc2c1=O`, the TGI in [1] is 34.5 µM; in test [2], 33.7 µM; in test [3] it was 34.8 µM; in test [9], 29.1 µM; in [4], 93 µM; in [5] it was 76.5 µM. For the same molecule, the TGI in test [10] was 64.3 µM; in test [6] it was 89.5 µM; in test [7], over 100 µM; in [11] it was 44.5 µM.

In the case of `FC1C2=C(SC1(F)F)C1CCC2C1` (stereo not drawn), the TGI in test [1], in [8], in [2], in test [3], in test [9] and in test [4] was over 100 µM throughout. The TGI in test [5], in test [10] and in [6] was over 100 µM throughout.

Regarding `Cc1cc(S(=O)(=O)Nc2nc(N)nc(N(C)C)n2)c(SCC(=O)O)cc1Cl`, the TGI in [1], in test [8], in [2], in test [3], in test [4] and in test [5] was over 10 µM each time. In addition, the TGI in test [10], in [6], in test [7] and in [11] was over 10 µM each time.

Regarding `CC(C)C1=CC23CCC4C(C)(C(=O)O)CCCC4(C)C2CC1C1C(=O)N(c2ccccc2)C(=O)C13` (stereo not drawn), the TGI in test [1] is over 100 µM; in [8], over 100 µM; in test [2], over 100 µM; in [3], over 100 µM; in [4], 60.3 µM; in test [5] it was over 100 µM. Further, the TGI in test [6], in test [7] and in [11] was over 100 µM each time.

For the molecule `CC1C2(C)OC(=N)C(C#N)(C(c3cccc([N+](=O)[O-])c3)O2)C1(C#N)C#N` (stereo not drawn), the TGI in [1] is 45.2 µM; in test [8] it was 24.4 µM; in [2], 74.6 µM; in test [3] it was over 100 µM; in [9], 32 µM; in test [4] it was over 100 µM. The TGI in test [5] was over 100 µM; in test [10], over 100 µM; in test [7], over 100 µM; in [11], 34.2 µM.

Values taken from PubChem BioAssay (NCI).
